Measured values from patent publication US9938322B2, “β-hairpin peptidomimetics” (priority 2013, dated 2018).
*1 amine or outer side, *2 acyl side, *3 side chain or, on linkers, in order; H or OH if unused. Where a SMILES comes first, the peptide text is derived from it. Side-chain parts run from the residue outwards. [ ]: non-standard residue; d: D form. The star is where a group is joined. X1 = CC(C)NC[C@H](N[*:1])C(=O)[*:2]; Cha = N[C@@H](CC1CCCCC1)C(=O)O; NH(3-picolyl) = c1cncc(CN*)c1; Chg = N[C@H](C(=O)O)C1CCCCC1; Tle = CC(C)(C)[C@H](N)C(=O)O; dDab = NCC[C@@H](N)C(=O)O; hSer = N[C@@H](CCO)C(=O)O; Orn = NCCC[C@H](N)C(=O)O; Dab = NCC[C@H](N)C(=O)O; Nva = CCC[C@H](N)C(=O)O; Dap = NC[C@H](N)C(=O)O; CO = O=C([*:1])[*:2]

Tested on: human red blood cells (hRBC)
Experiment: Hemolysis of human red blood cells
Type: cell-based
Conditions: red cells of human, 1 h, 100
Description: Lyophilized peptides were weighed on a Microbalance (Mettler MT5) and dissolved in sterile water to a final concentration of 1 mg/ml. Stock solutions were kept at +4° C., light protected.
The peptides were tested for their hemolytic activity against human red blood cells (hRBC). Fresh hRBC were washed three times with phosphate buffered saline (PBS) and centrifuged for 10 min at 2000×g. Compounds (100 μg/ml) were incubated with 20% hRBC (v/v) for 1 h at 37° C. and shaking at 300 rpm. The final erythrocyte concentration was approximately 0.9×10^9 cells/ml. A value of 0% and 100% cell lyses, respectively, was determined by incubation of hRBC in the presence of PBS containing 0.001% acetic acid and 2.5% Triton X-100 in H2O, respectively. The samples were centrifuged, the supernatants were 8-fold diluted in PBS buffer and the optical densities (OD) were measured at 540 nm. The 100% lyses value (OD540H2O) gave an OD540 of approximately 0.5-1.0.
Percent hemolysis was calculated as follows: (OD540peptide/OD540H2O)×100%.

Structure (SMILES)	Hemolysis at 100 μg/ml
CC(C)[C@@H]1NC(=O)[C@@H]2CCCN2C(=O)[C@H]2CCCN2C(=O)[C@H](CO)NC(=O)[C@H](C)NC(=O)[C@H](C(C)(C)C)NC(=O)[C@H](CCN)NC(=O)[C@H](Cc2c[nH]c3ccccc23)NC(=O)[C@H](CCN)NC(=O)[C@@H](CCN)NC(=O)[C@H](CCCN)NC(=O)[C@H](CCN)NC(=O)[C@H](CC2CCCCC2)NC(=O)[C@H](CO)NC1=O [compound 50] (cyclo(VS[Cha][Dab][Orn][dDab][Dab]W[Dab][Tle]AS[dP]P))	4%
C[C@@H]1NC(=O)[C@H](C(C)(C)C)NC(=O)[C@H](CCN)NC(=O)[C@H](Cc2c[nH]c3ccccc23)NC(=O)[C@H](CCN)NC(=O)[C@@H](CCN)NC(=O)[C@H](CCCN)NC(=O)[C@H](CCN)NC(=O)[C@H](C(C)(C)C)NC(=O)[C@H](CO)NC(=O)[C@H](Cc2c[nH]c3ccccc23)NC(=O)[C@@H]2CCCN2C(=O)[C@H]2CCCN2C(=O)[C@H](CO)NC1=O [compound 68] (cyclo(WS[Tle][Dab][Orn][dDab][Dab]W[Dab][Tle]AS[dP]P))	0%
CC(C)C[C@@H]1NC(=O)[C@@H]2CCCN2C(=O)[C@H]2CCCN2C(=O)[C@H](CO)NC(=O)[C@H](C)NC(=O)[C@H](C(C)(C)C)NC(=O)[C@H](CCCCN)NC(=O)[C@H](Cc2c[nH]c3ccccc23)NC(=O)[C@H](CCN)NC(=O)[C@@H](CCN)NC(=O)[C@H](CCCN)NC(=O)[C@H](CCN)NC(=O)[C@H](Cc2ccc(O)cc2)NC(=O)[C@H](CO)NC1=O [compound 100] (cyclo(LSY[Dab][Orn][dDab][Dab]WK[Tle]AS[dP]P))	1%
CC(C)NC[C@@H]1NC(=O)[C@H](Cc2c[nH]c3ccccc23)NC(=O)[C@@H]2CCCN2C(=O)[C@H]2CCCN2C(=O)[C@H](CO)NC(=O)[C@H](C)NC(=O)[C@H](C(C)(C)C)NC(=O)[C@H](CCO)NC(=O)[C@H](Cc2c[nH]c3ccccc23)NC(=O)[C@H](CCN)NC(=O)[C@@H](CCN)NC(=O)[C@H](CCCN)NC(=O)[C@H](CCN)NC(=O)[C@H](CC2CCCCC2)NC1=O [compound 9] (cyclo(W[X1][Cha][Dab][Orn][dDab][Dab]W[hSer][Tle]AS[dP]P))	2%
C[C@@H]1NC(=O)[C@H](Cc2c[nH]c3ccccc23)NC(=O)[C@@H]2CCCN2C(=O)[C@H]2CCCN2C(=O)[C@H](CO)NC(=O)[C@H](C)NC(=O)[C@H](C(C)(C)C)NC(=O)[C@H](CCN)NC(=O)[C@H](Cc2c[nH]c3ccccc23)NC(=O)[C@H](CCN)NC(=O)[C@@H](CCN)NC(=O)[C@H](CCCN)NC(=O)[C@H](CCN)NC(=O)[C@H](Cc2c[nH]c3ccccc23)NC1=O [compound 75] (cyclo(WAW[Dab][Orn][dDab][Dab]W[Dab][Tle]AS[dP]P))	1%
CC(C)C[C@@H]1NC(=O)[C@@H]2CCCN2C(=O)[C@H]2CCCN2C(=O)[C@H](CO)NC(=O)[C@H](CO)NC(=O)[C@H](C(C)(C)C)NC(=O)[C@H](CCN)NC(=O)[C@H](Cc2c[nH]c3ccccc23)NC(=O)[C@H](CCN)NC(=O)[C@H](CCN)NC(=O)[C@H](CCCN)NC(=O)[C@H](CCN)NC(=O)[C@H](CC2CCCCC2)NC(=O)[C@H](CO)NC1=O [compound 143] (cyclo(LS[Cha][Dab][Orn][Dab][Dab]W[Dab][Tle]SS[dP]P))	0%
COC[C@@H]1NC(=O)[C@H](C(C)(C)C)NC(=O)[C@H](CCN)NC(=O)[C@H](Cc2c[nH]c3ccccc23)NC(=O)[C@H](CCN)NC(=O)[C@H](CCN)NC(=O)[C@H](CCCN)NC(=O)[C@H](CCN)NC(=O)[C@H](CC2CCCCC2)NC(=O)[C@H](C)NC(=O)[C@H](Cc2c[nH]c3ccccc23)NC(=O)[C@@H]2CCCN2C(=O)[C@H]2CCCN2C(=O)[C@H](CO)NC1=O [Ex. 5] (cyclo(WA[Cha][Dab][Orn][Dab][Dab]W[Dab][Tle]S(Me)S[dP]P))	0.5%
C[C@@H]1NC(=O)[C@H](Cc2c[nH]c3ccccc23)NC(=O)[C@@H]2CCCN2C(=O)[C@H]2CCCN2C(=O)[C@H](CO)NC(=O)[C@H](C)NC(=O)[C@H](C2CCCCC2)NC(=O)[C@H](CCN)NC(=O)[C@H](Cc2c[nH]c3ccccc23)NC(=O)[C@H](CCN)NC(=O)[C@@H](CCN)NC(=O)[C@H](CCCN)NC(=O)[C@H](CCN)NC(=O)[C@H](Cc2ccc(O)cc2)NC1=O [compound 77] (cyclo(WAY[Dab][Orn][dDab][Dab]W[Dab][Chg]AS[dP]P))	1%
CC(C)C[C@@H]1NC(=O)[C@H](C)NC(=O)[C@H](C(C)(C)C)NC(=O)[C@H](CCN)NC(=O)[C@H](Cc2c[nH]c3ccccc23)NC(=O)[C@H](CCN)NC(=O)[C@@H](CCN)NC(=O)[C@H](CCCN)NC(=O)[C@H](CCN)NC(=O)[C@H](Cc2ccc(O)cc2)NC(=O)[C@H](CO)NC(=O)[C@H]([C@@H](C)O)NC(=O)[C@@H]2CCCN2C(=O)[C@H]2CCCN2C1=O [compound 161] (cyclo(TSY[Dab][Orn][dDab][Dab]W[Dab][Tle]AL[dP]P))	2%
CC(C)C[C@@H]1NC(=O)[C@@H]2CCCN2C(=O)[C@H]2CCCN2C(=O)[C@H]([C@@H](C)O)NC(=O)[C@H](CO)NC(=O)[C@H](C(C)(C)C)NC(=O)[C@H](CCN)NC(=O)[C@H](Cc2c[nH]c3ccccc23)NC(=O)[C@H](CCN)NC(=O)[C@@H](CCN)NC(=O)[C@H](CCN)NC(=O)[C@H](CCN)NC(=O)[C@H](Cc2ccc(O)cc2)NC(=O)[C@H]([C@@H](C)O)NC1=O [compound 124] (cyclo(LTY[Dab][Dab][dDab][Dab]W[Dab][Tle]ST[dP]P))	0.5%
C[C@@H]1NC(=O)[C@H](C(C)(C)C)NC(=O)[C@H](CCN)NC(=O)[C@H](Cc2c[nH]c3ccccc23)NC(=O)[C@H](CCN)NC(=O)[C@@H](CCN)NC(=O)[C@H](CCCN)NC(=O)[C@H](CCN)NC(=O)[C@H](CC2CCCCC2)NC(=O)[C@H](CNC(=O)NCc2cccnc2)NC(=O)[C@H](Cc2c[nH]c3ccccc23)NC(=O)[C@@H]2CCCN2C(=O)[C@H]2CCCN2C(=O)[C@H](CO)NC1=O [compound 16] (cyclo(W[Dap]([CO-NH(3-picolyl)])[Cha][Dab][Orn][dDab][Dab]W[Dab][Tle]AS[dP]P))	7%
CC(C)C[C@@H]1NC(=O)[C@@H]2CCCN2C(=O)[C@H]2CCCN2C(=O)[C@H](CO)NC(=O)[C@H](C)NC(=O)[C@H](C(C)(C)C)NC(=O)[C@H](CCN)NC(=O)[C@H](Cc2c[nH]c3ccccc23)NC(=O)[C@@H](CCN)NC(=O)[C@@H](CCN)NC(=O)[C@H](CCCN)NC(=O)[C@H](CCN)NC(=O)[C@H](Cc2ccc(O)cc2)NC(=O)[C@H](CO)NC1=O [compound 155] (cyclo(LSY[Dab][Orn][dDab][dDab]W[Dab][Tle]AS[dP]P))	0%
CCC[C@@H]1NC(=O)[C@H](CCN)NC(=O)[C@H](Cc2c[nH]c3ccccc23)NC(=O)[C@H](CCN)NC(=O)[C@@H](CCN)NC(=O)[C@H](CCCN)NC(=O)[C@H](CCN)NC(=O)[C@H](Cc2ccc(O)cc2)NC(=O)[C@H](CO)NC(=O)[C@H](Cc2c[nH]c3ccccc23)NC(=O)[C@@H]2CCCN2C(=O)[C@H]2CCCN2C(=O)[C@H](CO)NC(=O)[C@H](C)NC1=O [compound 71] (cyclo(WSY[Dab][Orn][dDab][Dab]W[Dab][Nva]AS[dP]P))	0%
CC[C@H](C)[C@@H]1NC(=O)[C@@H]2CCCN2C(=O)[C@H]2CCCN2C(=O)[C@H](CO)NC(=O)[C@H](C)NC(=O)[C@H](C(C)(C)C)NC(=O)[C@H](CCN)NC(=O)[C@H](Cc2c[nH]c3ccccc23)NC(=O)[C@H](CCN)NC(=O)[C@@H](CCN)NC(=O)[C@H](CCCN)NC(=O)[C@H](CCN)NC(=O)[C@H](Cc2ccc(O)cc2)NC(=O)[C@H](CC(N)=O)NC1=O [compound 85] (cyclo(INY[Dab][Orn][dDab][Dab]W[Dab][Tle]AS[dP]P))	0%
CC[C@H](C)[C@@H]1NC(=O)[C@@H]2CCCN2C(=O)[C@H]2CCCN2C(=O)[C@H](CO)NC(=O)[C@H](C)NC(=O)[C@H](C(C)(C)C)NC(=O)[C@H](CCN)NC(=O)[C@H](Cc2c[nH]c3ccccc23)NC(=O)[C@H](CCN)NC(=O)[C@@H](CCN)NC(=O)[C@H](CCCCN)NC(=O)[C@H](CCN)NC(=O)[C@H](Cc2ccc(O)cc2)NC(=O)[C@H](CO)NC1=O [compound 82] (cyclo(ISY[Dab]K[dDab][Dab]W[Dab][Tle]AS[dP]P))	1%
CC[C@H](C)[C@@H]1NC(=O)[C@@H]2CCCN2C(=O)[C@H]2CCCN2C(=O)[C@H](CO)NC(=O)[C@H](C)NC(=O)[C@H](C(C)(C)C)NC(=O)[C@H](CCN)NC(=O)[C@H](Cc2c[nH]c3ccccc23)NC(=O)[C@H](CCN)NC(=O)[C@@H](CCN)NC(=O)[C@H](CCCN)NC(=O)[C@H](CCN)NC(=O)[C@H](Cc2ccc(O)cc2)NC(=O)[C@H](C)NC1=O [compound 125] (cyclo(IAY[Dab][Orn][dDab][Dab]W[Dab][Tle]AS[dP]P))	0%
CC(C)C[C@@H]1NC(=O)[C@@H]2CCCN2C(=O)[C@H]2CCCN2C(=O)[C@H](CO)NC(=O)[C@H](C)NC(=O)[C@H](C(C)(C)C)NC(=O)[C@H](CN)NC(=O)[C@H](Cc2c[nH]c3ccccc23)NC(=O)[C@H](CCN)NC(=O)[C@@H](CCN)NC(=O)[C@H](CCCN)NC(=O)[C@H](CCN)NC(=O)[C@H](Cc2ccc(O)cc2)NC(=O)[C@H](CO)NC1=O [compound 101] (cyclo(LSY[Dab][Orn][dDab][Dab]W[Dap][Tle]AS[dP]P))	1%
CC(C)C[C@@H]1NC(=O)[C@@H]2CCCN2C(=O)[C@H]2CCCN2C(=O)[C@H](CO)NC(=O)[C@H](C)NC(=O)[C@H](C(C)(C)C)NC(=O)[C@H](CCN)NC(=O)[C@H](Cc2c[nH]c3ccccc23)NC(=O)[C@H](CCN)NC(=O)[C@@H](CCN)NC(=O)[C@H](CCCNC(=N)N)NC(=O)[C@H](CCN)NC(=O)[C@H](Cc2ccc(O)cc2)NC(=O)[C@H](CO)NC1=O [compound 98] (cyclo(LSY[Dab]R[dDab][Dab]W[Dab][Tle]AS[dP]P))	1%
